Experimental data taken from US7923204B2, “Forward mutation assay based on 5-fluorouracil resistance” (priority 2003, dated 2011).
Read-outs that look alike come from different tables or passages of the source. Marks after values point to notes of the source that are not given here.

Legend:
TA100, TA1535 = system: TA100, TA1535
Text: As stated above, the Ames Salmonella his+ plate incorporation assay evaluates genotoxic activity (mutagenicity) of chemical compounds on a set of genetically modified bacterial tester strains that are auxotrophic for the amino acid histidine. In practice, the Ames Assay simultaneously evaluates the genotoxic activity of a potential mutagen on several different target genes. The standard Ames Assay utilizes several different tester strains, each with a distinct mutation (e.g., transition, frameshift etc.) in one of the genes comprising the histidine (his) biosynthetic operon. The his operon encodes enzymes required for the biosynthesis of the amino acid histidine. For example, strain TA98 contains the hisD3052 allele which is reverted by a frameshift mutation, while strain TA1535 contains the hisG46 allele which is reverted by transition and transversion mutations. More specifically, the Ames Assay evaluates the ability of a chemical agent to increase the rate of reversion of auxotrophic strains of Salmonella to prototrophy.

FU100 [1] = system: FU100
Procedure: Briefly, in order to practice the disclosed mutation assay one-ml aliquots of exponentially growing bacteria are exposed to the test agent for two hours in the presence and absence of a metabolic activation system, such as a mammalian (i.e., rat, hamster or human) liver homogenate (S9-fraction or liver microsomal enzymes). The aliquots are then diluted, allowed to grow for 3 hours, and assessed for treatment-related toxicity/inhibition by optical density. The cultures are subsequently diluted a second time and grown overnight to permit full recovery from toxicity and to allow expression of the FU^R phenotype. Samples of the cultures are then plated in 384-well microtiter dishes in the presence of 2 μg/ml 5-FU and the pH-sensitive indicator bromcresol purple. Three days later positive wells containing FU^R colonies are detected by their yellow color and enumerated. Treated cultures are then compared to control plates to determine genotoxic activity.
For each mutation experiment, two frozen 1-ml aliquots of FU100 were quickly thawed in a 37° C. water bath, pelleted by centrifugation, washed to remove the DMSO, and suspended in 35 mL of MinE medium. The culture was shaken for approximately 1 hour at 37° C. until the optical density at 600 nm (OD600) reached the target density of 0.3. A 16-ml aliquot of culture was added to each of two 50-ml tubes containing 3.6 ml of a NADPH-generating system (5.6 mM glucose-6-phosphate, 4.5 mM NADP+, 5 mM sucrose, 110 mM Na2HPO4, 37 mM KCl, and 9 mM MgCl2) and either 0.4 ml rat liver S-9 or an equal volume of sodium phosphate buffer. Aliquots of these mixtures were distributed into three 12-well cluster dishes (one for exposure with S-9, one for exposure without S-9, one for controls with and without S-9), and exposed to test compounds as 1-ml aliquots for 2 hour as outlined in FIG. 1.
Following treatment, the 1-ml aliquots were transferred into 9 ml of warm MinE medium in a 50 ml tube and incubated at 37° C. on a rotary wheel for 3 hours. Next, 20 ml of medium was added to each culture tube and 0.25 ml aliquots were transferred to a 96-well plate for OD600 measurements to assess toxicity (OD Day 1). […] Bulk cultures were then incubated overnight in the dark at 30° C. to permit recovery from toxicity and to allow time for the test cells to express the FU^R phenotype.
The next day, OD600 was again assessed to adjust cell number plated on 5-FU plates (OD Day 2; 100 μl of the culture diluted with 150 μl MinE medium for OD600 measurements). For plating, a 35 μl aliquot of each culture was added to 31.4 mL of MinE medium with 2 μg/ml of 5-FU and 10 μg/ml of bromcresol purple. The mixture was then dispersed into a 384-well plate (75 μl/well) and placed at 37° C. for 3 days in a humidified incubator.
The data obtained for both survival (OD day 1), relative number of cells plated (OD day 2), and number of positive wells were imported into an Excel template.
Table 8 summarizes the criteria for positive result in 5-FU assay using the FU100 tester strain described and claimed herein. […] A positive compound was defined when two or more doses met the aforementioned criteria.

Salmonella = conditions: cited from earlier work
[2] = system: sister chromatid exchange; conditions: cited from earlier work
micronucleus = conditions: cited from earlier work
chromosome aberrations = conditions: cited from earlier work
FU100 [3] = system: FU100; remark: listed apart in the source
mouse lymphoma = conditions: cited from earlier work
[4] = NTP Results Report 12 Aug. 2002
[5] = NTP Results Report 12 Aug. 2002 or cited reference (footnotes f, g, i, j)
[6] = in the presence of S9 activation (+), FU100, 2 h exposure
[7] = without S9 activation (−), FU100, 2 h exposure
[8] = in the presence of S9 activation (+), approximate, first dose with greater than 50% survival by optical density on Day 1
[9] = without S9 activation (−), approximate, first dose with greater than 50% survival by optical density on Day 1

| Compound | Results (5-FU assay) (FU100 [1]) | response in the 5-FU Assay (in words) (FU100 [1]) | NTP Results: SA = Salmonella (Salmonella) | NTP Results: SC = sister chromatid exchange [2, 4] | NTP Results: MN = micronucleus (micronucleus; [4]) | NTP Results: SA = Salmonella (Salmonella; [5]) | NTP Results: CA = chromosome aberrations (chromosome aberrations; [4]) | Results (5-FU assay) (FU100 [1]; [6]) | Results (5-FU assay) (FU100 [1]; [7]) | LD50 (FU100 [3]; [8]) [µg/mL] | LD50 (FU100 [3]; [9]) [µg/mL] | NTP Results: SC = sister chromatid exchange [2] | NTP Results: ML = mouse lymphoma (mouse lymphoma) | NTP Results: CA = chromosome aberrations (chromosome aberrations) | other results |
| --- | --- | --- | --- | --- | --- | --- | --- | --- | --- | --- | --- | --- | --- | --- | --- |
| OO [Hydrogen Peroxide] | Pos | positive compounds in toxic concentrations | (SA+^w) |  |  |  |  |  |  |  |  |  |  |  | response in the standard Ames assay (in words) (TA100, TA1535): weak or equivocal response; Lowest Positive Dose (FU100 [1]; Salmonella typhimurium): 3 µg/mL; Results (5-FU assay) (FU100 [1]; s9): Neg; response in the 5-FU Assay (in words) (FU100 [1]; text and figure legend (FIG. 6), with or without S9): easy to detect |
| CC(C)CON=O [Isobutyl Nitrite] | Pos | positive compounds in toxic concentrations |  | (SA+, CA+, SC+, MN+) | (SA+, CA+, SC+, MN+) | (SA+, CA+, SC+, MN+) | (SA+, CA+, SC+, MN+) |  |  |  |  |  |  |  |  |
| CC1CCC(C(C)C)C(O)C1 (centres unmarked) [Menthol] |  |  |  | (SA−, CA−, SC−, ML−, MN−) | (SA−, CA−, SC−, ML−, MN−) | (SA−, CA−, SC−, ML−, MN−) | (SA−, CA−, SC−, ML−, MN−) | Neg | Neg | >9 | >16 |  |  |  | NTP Results: ML = mouse lymphoma (mouse lymphoma; [4]): (SA−, CA−, SC−, ML−, MN−) |
| O=C1CN(/N=C/c2ccc([N+](=O)[O-])o2)C(=O)N1 [Nitrofurantoin] | Pos |  | (SA+, CA+, SC+, ML+, MN−) |  |  |  |  |  |  |  |  | (SA+, CA+, SC+, ML+, MN−) | (SA+, CA+, SC+, ML+, MN−) | (SA+, CA+, SC+, ML+, MN−) | Lowest Positive Dose (FU100 [1]; Salmonella typhimurium): 0.1 µg/mL; LD50 (FU100 [3]; Salmonella typhimurium): >1 µg/mL; NTP Results: MN = micronucleus (micronucleus): (SA+, CA+, SC+, ML+, MN−) |
| Oc1ccccc1 [Phenol] | Neg | negative/toxic | (SA−, CA+, SC+, ML+) |  |  |  |  |  |  |  |  | (SA−, CA+, SC+, ML+) | (SA−, CA+, SC+, ML+) | (SA−, CA+, SC+, ML+) |  |
| COC(=O)[C@H]1[C@H]2C[C@@H]3c4[nH]c5cc(OC)ccc5c4CCN3C[C@H]2C[C@@H](OC(=O)c2cc(OC)c(OC)c(OC)c2)[C@@H]1OC [Reserpine] |  |  |  | − | − | − |  | Neg | Neg | >1500 | >1500 |  |  |  | NTP Results: ML = mouse lymphoma (mouse lymphoma; [4]): − |
| C=CCc1ccc2c(c1)OCO2 [Safrole] | Neg |  | (SA−, CA−, SC+ ML+) |  |  |  |  |  |  | >50 | >60 | (SA−, CA−, SC+ ML+) | (SA−, CA−, SC+ ML+) | (SA−, CA−, SC+ ML+) |  |
| [N-]=[N+]=[N-] [Sodium Azide] |  |  |  | + |  | + | − | Pos^w | Pos^w | >30 | >50 |  |  |  | response in the standard Ames assay (in words) (TA100, TA1535; TA100 or TA1535, plate incorporation or liquid suspension): extremely sensitive; concentration producing a positive response in the 5-FU Assay (FU100 [1]; S9 condition not stated): greater than 90 μg/ml; Lowest Positive Dose (FU100 [1]; in the presence of S9 activation (+), lowest dose tested giving a positive response): 90 µg/mL; Lowest Positive Dose (FU100 [1]; without S9 activation (−), lowest dose tested giving a positive response): 160 µg/mL |
